Earlier results as cited in US20080138412A1, “Sustained release alfuzosin hydrochl formulation and method for their production” (priority 2006, published 2008).
Structures can show the parent of a compound that is named as a salt.

half-life: about 9 hours
Compound: COc1cc2nc(N(C)CCCNC(=O)C3CCCO3)nc(N)c2cc1OC (stereo not shown) [Alfuzosin hydrochloride]
